# Like-named read-outs stand apart in the source and are kept apart here.
# How the values were obtained:
# GSK 3α = GSK 3α (Homo sapiens (Human), UniProt P49840); experiment: GSK 3α enzyme inhibition (FRET, Z-LYTE, Method 2); format: biochemical; conditions: read-out: IC50 Values for Enzyme Inhibition, GSK3α
# Method: The enzyme inhibitory activities of compounds disclosed herein are determined by FRET using synthetic peptides labelled with both donor and acceptor fluorophores (Z-LYTE, Invitrogen Ltd., Paisley, UK).
# The following two assay variants can be used for determination of GSK 3α inhibition.
# The inhibitory activities of compounds of the invention against the GSK 3α enzyme isoform (Invitrogen), are evaluated by determining the level of activation/phosphorylation of the target peptide. The GSK3-α protein (500 ng/mL, 2.5 μL) is mixed with the test compound (2.5 μL at either 4 μg/mL, 0.4 μg/mL, 0.04 μg/mL, or 0.004 μg/mL) for 2 hr at RT. The FRET peptide (8 μM, 2.5 μL), which is a phosphorylation target for GSK3α, and ATP (40 μM, 2.5 μL) are then added to the enzyme/compound mixture and the resulting mixture incubated for 1 hr. Development reagent (protease, 5 μL) is added for 1 hr prior to detection in a fluorescence microplate reader (Varioskan® Flash, ThermoFisher Scientific).
# In all cases, the site-specific protease cleaves non-phosphorylated peptide only and eliminates the FRET signal. Phosphorylation levels of each reaction are calculated using the ratio of coumarin emission (donor) over fluorescein emission (acceptor), for which high ratios indicate high phosphorylation and low ratios indicate low phosphorylation levels. The percentage inhibition of each reaction is calculated relative to non-inhibited control and the 50% inhibitory concentration (IC50 value) is then calculated from the concentration-response curve.
# This method follows the same steps as Method 1 above, but utilises a shorter period of mixing of the test compound (105 minutes instead of 2 hours) with the GSK3-α protein.
# PBMCs = experiment: LPS-induced IL-8 release in PBMC cells (assay b); format: cell-based, human; conditions: LPS-stimulated PBMCs, read-out: IC50 Values for Inhibition of Cytokine Release, PBMCs IL-8
# Method: Peripheral blood mononuclear cells (PBMCs) from healthy subjects are separated from whole blood using a density gradient (Lymphoprep, Axis-Shield Healthcare). The PBMCs are seeded in 96 well plates and treated with compounds at the desired concentration for 2 hours before addition of 1 ng/mL LPS (Escherichia Coli 0111:B4 from Sigma Aldrich) for 24 hours under normal tissue culture conditions (37° C., 5% CO2). The supernatant is harvested for determination of IL-8 and TNFα concentrations by sandwich ELISA (Duo-set, R&D systems) and read on the fluorescence microplate reader (Varioskan® Flash, ThermoFisher Scientific). The concentration at 50% inhibition (IC50) of IL-8 and TNFα production is calculated from the dose response curve.
# Chain of GSK 3α (P49840 whole entry): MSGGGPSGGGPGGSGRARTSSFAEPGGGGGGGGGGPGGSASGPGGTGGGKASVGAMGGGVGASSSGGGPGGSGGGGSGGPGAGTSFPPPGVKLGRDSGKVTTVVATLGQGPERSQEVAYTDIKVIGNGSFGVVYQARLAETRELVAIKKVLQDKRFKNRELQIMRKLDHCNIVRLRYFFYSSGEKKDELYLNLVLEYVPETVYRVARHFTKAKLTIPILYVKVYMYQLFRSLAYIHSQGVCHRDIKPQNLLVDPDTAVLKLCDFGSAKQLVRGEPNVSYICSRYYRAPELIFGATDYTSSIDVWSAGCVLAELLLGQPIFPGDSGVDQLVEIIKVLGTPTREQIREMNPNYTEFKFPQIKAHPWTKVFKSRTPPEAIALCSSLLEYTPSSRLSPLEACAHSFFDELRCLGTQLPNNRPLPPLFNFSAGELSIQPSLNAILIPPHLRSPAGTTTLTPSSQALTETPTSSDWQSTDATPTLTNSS
smiles,measurement,setting,value
"COc1ccccc1Nc1nccc(Oc2ccc(NC(=O)Nc3cc(C(C)(C)C)cc(P(C)(C)=O)c3OC)c3ccccc23)n1 [15(f), 1-(5-(tert-butyl)-3-(dimethylphosphoryl)-2-methoxyphenyl)-3-(4-((2-((2-methoxy-phenyl)amino)pyrimidin-4-yl)oxy)naphthalen-1-yl)urea]",IC50,GSK 3α,3100 nM
same,IC50,PBMCs,26.2 nM
"COc1ccc(Nc2nccc(Oc3ccc(NC(=O)Nc4cc(C(C)(C)C)cc(P(C)(C)=O)c4OC)c4ccccc34)n2)cc1 [15(h), 1-(5-(tert-butyl)-3-(dimethylphosphoryl)-2-methoxyphenyl)-3-(4-((2-((4-methoxy-phenyl)amino)pyrimidin-4-yl)oxy)naphthalen-1-yl)urea]",IC50,GSK 3α,779 nM
same,IC50,"PBMCs; Homo sapiens, PBMC",4.6 nM
"COc1ccc(Nc2nccc(Oc3ccc(NC(=O)Nc4cc(C(C)(C)C)cc(P(C)(C)=O)c4OC)c4ccccc34)n2)cc1OC [15(i), 1-(5-(tert-butyl)-3-(dimethylphosphoryl)-2-methoxyphenyl)-3-(4-((2-((3,4-dimethoxyphenyl)amino)pyrimidin-4-yl)oxy)naphthalen-1-yl)urea]",IC50,GSK 3α,359 nM
same,IC50,"PBMCs; Homo sapiens, PBMC",1.5 nM
"COc1c(NC(=O)Nc2ccc(Oc3ccnc(Nc4ccccc4)n3)c3ccccc23)cc(C(C)(C)C)cc1[S+](C)[O-] (stereo not drawn) [15(k), 1-(5-(tert-butyl)-2-methoxy-3-(methylsulfinyl)phenyl)-3-(4-((2-(phenylamino)pyrimidin-4-yl)oxy)naphthalen-1-yl)urea]",IC50,GSK 3α,1170 nM
same,IC50,"PBMCs; Homo sapiens, PBMC",5.6 nM
"COc1c(NC(=O)Nc2ccc(Oc3ccnc(Nc4ccccc4)n3)c3ccccc23)cc(C(C)(C)C)cc1S(C)(=O)=O [15(l), 1-(5-(tert-butyl)-2-methoxy-3-(methylsulfonyl)phenyl)-3-(4-((2-(phenylamino)pyrimidin-4-yl)oxy)naphthalen-1-yl)urea]",IC50,GSK 3α,8220 nM
same,IC50,"PBMCs; Homo sapiens, PBMC",17.5 nM
"COc1c(CS(C)(=O)=O)cc(C(C)(C)C)cc1NC(=O)Nc1ccc(Oc2ccnc(Nc3ccccc3)n2)c2ccccc12 [15(n), 1-(5-(tert-butyl)-2-methoxy-3-((methylsulfonyl)methyl)phenyl)-3-(4-((2-(phenylamino)-pyrimidin-4-yl)oxy)naphthalen-1-yl)urea]",IC50,GSK 3α,1640 nM
same,IC50,"PBMCs; Homo sapiens, PBMC",13.5 nM
"COc1c(NC(=O)Nc2ccc(Oc3ccnc(Nc4ccccn4)n3)c3ccccc23)cc(C(C)(C)C)cc1P(C)(C)=O [15(o), 1-(5-(tert-butyl)-3-(dimethylphosphoryl)-2-methoxyphenyl)-3-(4-((2-(pyridin-2-ylamino)pyrimidin-4-yl)oxy)naphthalen-1-yl)urea]",IC50,GSK 3α,5800 nM
same,IC50,"PBMCs; Homo sapiens, PBMC",20.4 nM
"COc1c(NC(=O)Nc2ccc(Oc3ccnc(Nc4ccccc4)n3)c3ccccc23)cc(C(C)(C)C)cc1C(=O)NCCN1CCOCC1 [15(p), 5-(tert-butyl)-2-methoxy-N-(2-morpholinoethyl)-3-(3-(4-((2-(phenylamino)pyrimidin-4-yl)oxy)naphthalen-1-yl)ureido)benzamide]",IC50,GSK 3α,1950 nM
same,IC50,"PBMCs; Homo sapiens, PBMC",9.4 nM
"COc1c(NC(=O)Nc2ccc(Oc3ccnc(Nc4cncnc4)n3)c3ccccc23)cc(C(C)(C)C)cc1P(C)(C)=O [15(r), 1-(5-(tert-butyl)-3-(dimethylphosphoryl)-2-methoxyphenyl)-3-(4-((2-(pyrimidin-5-ylamino)pyrimidin-4-yl)oxy)naphthalen-1-yl)urea]",IC50,GSK 3α,188 nM
same,IC50,"PBMCs; Homo sapiens, PBMC",4.8 nM
"COc1c(NC(=O)Nc2ccc(Oc3ccnc(Nc4cnn(C)c4)n3)c3ccccc23)cc(C(C)(C)C)cc1P(C)(C)=O [15(s), 1-(5-(tert-butyl)-3-(dimethylphosphoryl)-2-methoxyphenyl)-3-(4-((2-((1-methyl-1H-pyrazol-4-yl)amino)pyrimidin-4-yl)oxy)naphthalen-1-yl)urea]",IC50,GSK 3α,239 nM
same,IC50,"PBMCs; Homo sapiens, PBMC",1.4 nM
"COc1c(NC(=O)Nc2ccc(Oc3ccnc(Nc4cccc(OS(C)(=O)=O)c4)n3)c3ccccc23)cc(C(C)(C)C)cc1P(C)(C)=O [15(t), 3-((4-((4-(3-(5-(tert-butyl)-3-(dimethylphosphoryl)-2-methoxyphenyl)ureido)-naphthalen-1-yl)oxy)pyrimidin-24)amino)phenyl methanesulfonate]",IC50,GSK 3α,283 nM
same,IC50,"PBMCs; Homo sapiens, PBMC",0.5 nM
"COc1c(NC(=O)Nc2ccc(Oc3ccnc(Nc4ccccc4)n3)c3ccccc23)cc(C(C)(C)C)cc1C(=O)NCCN1CCCC1 [15(u), 5-(tert-butyl)-2-methoxy-3-(3-(4-((2-(phenylamino)pyrimidin-4-yl)oxy)naphthalen-1-yl)ureido)-N-(2-(pyrrolidin-1-yl)ethyl)benzamide]",IC50,GSK 3α,3060 nM
same,IC50,"PBMCs; Homo sapiens, PBMC",7.9 nM
"COc1c(NC(=O)Nc2ccc(Oc3ccnc(Nc4ccc5c(c4)NC(=O)C5)n3)c3ccccc23)cc(C(C)(C)C)cc1P(C)(C)=O [15(v), 1-(5-(tert-butyl)-3-(dimethylphosphoryl)-2-methoxyphenyl)-3-(4-((2-((2-oxoindolin-6-yl)amino)pyrimidin-4-yl)oxy)naphthalen-1-yl)urea]",IC50,GSK 3α,302 nM
same,IC50,"PBMCs; Homo sapiens, PBMC",2.8 nM
"COc1c(NC(=O)Nc2ccc(Oc3ccnc(Nc4ccc5c(c4)OCCO5)n3)c3ccccc23)cc(C(C)(C)C)cc1P(C)(C)=O [15(w), 1-(5-(tert-butyl)-3-(dimethylphosphoryl)-2-methoxyphenyl)-3-(4-((2-((2,3-dihydrobenzo[b][1,4]dioxin-6-yl)amino)pyrimidin-4-yl)oxy)naphthalen-1-yl)urea]",IC50,GSK 3α,1670 nM
same,IC50,"PBMCs; Homo sapiens, PBMC",10.5 nM
"COc1c(NC(=O)Nc2ccc(Oc3ccnc(Nc4ccc5c(c4)CS(=O)(=O)C5)n3)c3ccccc23)cc(C(C)(C)C)cc1P(C)(C)=O [15(y), 1-(5-(tert-butyl)-3-(dimethylphosphoryl)-2-methoxyphenyl)-3-(4-((2-((2,2-dioxido-1,3-dihydrobenzo[c]thiophen-5-yl)amino)pyrimidin-4-yl)oxy)naphthalen-1-yl)urea]",IC50,GSK 3α,194 nM
same,IC50,"PBMCs; Homo sapiens, PBMC",0.9 nM
"COc1c(NC(=O)Nc2ccc(Oc3ccnc(Nc4cnoc4)n3)c3ccccc23)cc(C(C)(C)C)cc1P(C)(C)=O [15(z), 1-(5-(tert-butyl)-3-(dimethylphosphoryl)-2-methoxyphenyl)-3-(4-((2-(isoxazol-4-ylamino)pyrimidin-4-yl)oxy)naphthalen-1-yl)urea]",IC50,GSK 3α,1500 nM
same,IC50,"PBMCs; Homo sapiens, PBMC",36.1 nM
"COc1c(CN(C)C(C)=O)cc(C(C)(C)C)cc1NC(=O)Nc1ccc(Oc2ccnc(Nc3ccccc3)c2)c2ccccc12 [38(aa), N-(5-(tert-Butyl)-2-methoxy-3-(3-(4-((2-(phenylamino)pyridin-4-yl)oxy)naphthalen-1-yl)ureido)benzyl)-N-methylacetamide]",IC50,GSK 3α,8290 nM
same,IC50,"PBMCs; Homo sapiens, PBMC",2.5 nM
"COc1cc(Nc2cc(Oc3ccc(NC(=O)Nc4cc(C(C)(C)C)cc(CNC(C)=O)c4OC)c4ccccc34)ccn2)cc(C(N)=O)c1 [38(ac), 3-((4-((4-(3-(3-(Acetamidomethyl)-5-(tert-butyl)-2-methoxyphenyl)ureido)naphthalen-1-yl)oxy)pyridin-2-yl)amino)-5-methoxybenzamide]",IC50,GSK 3α,834 nM
same,IC50,"PBMCs; Homo sapiens, PBMC",0.4 nM
"COc1cc(Nc2cc(Oc3ccc(NC(=O)Nc4cc(C(C)(C)C)cc(CC(N)=O)c4OC)c4ccccc34)ccn2)cc(P(C)(C)=O)c1 [38(ae), 2-(5-(tert-Butyl)-3-(3-(4-((2-((3-(dimethylphosphoryl)-5-methoxyphenyl)amino)pyridin-4-yl)oxy)naphthalen-1-yl)ureido)-2-methoxyphenyl)acetamide]",IC50,GSK 3α,800 nM
same,IC50,"PBMCs; Homo sapiens, PBMC",1.2 nM
"COCCOCCOCCNC(=O)c1cc(Nc2cc(Oc3ccc(NC(=O)Nc4cc(C(C)(C)C)cc(CC(N)=O)c4OC)c(Cl)c3Cl)ccn2)cc(OC)c1 [38(ag), 3-((4-(4-(3-(3-(2-Amino-2-oxoethyl)-5-(tert-butyl)-2-methoxyphenyl)ureido)-2,3-dichlorophenoxy)pyridin-2-yl)amino)-5-methoxy-N-(2-(2-(2-methoxyethoxy)ethoxy)ethyl)benzamide]",IC50,GSK 3α,370 nM
same,IC50,"PBMCs; Homo sapiens, PBMC",0.6 nM
"COc1cc(Nc2nccc(Oc3ccc(NC(=O)Nc4cc(C(C)(C)C)cc(C(=O)NCCN5CCOCC5)c4OC)c4ccccc34)n2)cc(C(=O)NCCN2CCOCC2)c1 [38(ak), 5-(tert-Butyl)-2-methoxy-3-(3-(4-((2-((3-methoxy-5-((2-morpholinoethyl)carbamoyl)-phenyl)amino)pyrimidin-4-yl)oxy)naphthalen-1-yl)ureido)-N-(2-morpholinoethyl)benzamide]",IC50,GSK 3α,461 nM
same,IC50,"PBMCs; Homo sapiens, PBMC",1.2 nM

# Source: patent publication US9890185B2, “Urea derivatives useful as kinase inhibitors” (Respivert Limited, priority 2013, dated 2018)
